From patent US12471620B2, “Use of isothiocyanate in smokeless tobacco products” (Gamot Global Pte. Ltd., priority 2019, dated 2025)

System: A549 cells
Assay: CellEvent Caspase 3/7 green detection assay of apoptosis, brightfield and fluorescent imaging
Format: cell-based, human
Conditions: for concentration at which exponentially more cells undergo apoptosis than at lower concentrations: at 48 hours (AITC, combinations) or earlier than at lower concentrations; for induction of cell death (apoptosis): daily treatment, imaged at 24 to 96 hours (combinations up to 72 hours)
Procedure: A549 cells were plated into 48 well culture plates at a density of 3.0×10^4 cells/cm^2. Cells were dissociated with 0.05% trypsin EDTA following a 5-minute incubation at 37° C., neutralized in a 1:1 ratio of standard medium and counted using a hemocytometer prior to plating. All wells were settled overnight prior to addition of one of the following treatment compounds: AITC, PEITC, Thymoquinone, or Resveratrol. All treatments were performed within 24 hours following initial plating.
Treatment of the A549 cells occurred at the following time points and concentrations: AITC—25 μM, 50 μM and 100 μM for 24, 48 and 96 hours. PEITC—25 μM, 50 μM, 100 μM and 200 μM for 24, 48 and 96 hours. TQ—25 μM, 50 μM, 10 0 μM and 200 μM for 24, 48 and 96 hours. Resveratrol—25 μM, 50 μM and 100 μM for 48 and 96 hours. DMSO was used to dissolve each compound, and cells treated with DMSO without any of tested compounds served as a control. Treated cells received daily treatments using the same concentrations until the last time point of the experiment.
Apoptosis was detected using the CellEvent Caspase 3/7 green detection kit/assay from Thermofisher Scientific. Cells were incubated with diluted assay reagent for 30 minutes at 37° C. prior to analysis, and imaged by a brightfield and a fluorescent microscopes.
CellEvent Caspase-3/7 Green Detection Reagent is intrinsically non-fluorescent, as the four amino acid peptide (DEVD peptide) inhibits the ability of the dye to bind to DNA. However, following activation of caspase-3/7 in apoptotic cells, the DEVD peptide is cleaved, enabling the dye to bind to DNA and produce a bright, fluorogenic response. The fluorescent emission of the dye ˜530 can be observed under a fluorescent microscope.

| Compound | concentration at which exponentially more cells undergo apoptosis than at lower concentrations | induction of cell death (apoptosis) | apoptotic effect at 25 μM relative to higher concentrations (25 μM) | onset of apoptotic effects (effects only observed at 48 and 96 hours) |
| --- | --- | --- | --- | --- |
| C=CCN=C=S [AITC, Allyl Isothiocyanate] | ≥ 50 µM | induces cancer cell death | – | – |
| Oc1ccc(C=Cc2cc(O)cc(O)c2)cc1 [Resveratrol] | ≥ 50 µM | induces cell death | reduced | delayed relative to other compounds |
| CC1=CC(=O)C(C(C)C)=CC1=O [Thymoquinone] | ≥ 100 µM | induces cell death | – | – |
